In ChEMBL document CHEMBL1201862, “PubChem BioAssay data set” (2004):
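Tested at 5 concentrations; 48 h exposure; 96-well plates; endpoints linearly interpolated, else capped at highest concentration. The concentration for 50% growth inhibition is given as GI50.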 Active and inactive are the calls of the source. Cut-off read from the data, not from the text of the source: active = GI50 up to about 1.1 µM and inactive = higher.

Experiments:
Assay in all cases: NCI anticancer screen, dose series, 48 h
[1] = system: 786-0
[2] = system: CAKI-1
[3] = system: HCT-116
[4] = system: HOP-62
[5] = system: Hs-578T
[6] = system: IGROV-1
[7] = system: LOX IMVI
[8] = system: M14
[9] = system: MDA-MB-435
[10] = system: Malme-3M
[11] = system: NCI-H226
[12] = system: NCI-H23
[13] = system: NCI-H522
[14] = system: OVCAR-4
[15] = system: SF-295
[16] = system: SN12C
[17] = system: SW-620
[18] = system: T47D
[19] = system: UACC-62
[20] = system: UO-31

Compound | GI50 [1] | GI50 [2] | GI50 [3] | GI50 [4] | GI50 [5] | GI50 [6] | GI50 [7] | GI50 [8] | GI50 [9] | GI50 [10] | GI50 [11] | GI50 [12] | GI50 [13] | GI50 [14] | GI50 [15] | GI50 [16] | GI50 [17] | GI50 [18] | GI50 [19] | GI50 [20]
O=C1c2c(O)cccc2C(C2OC(CO)C(O)C(O)C2O)c2cc(CO)cc(O)c21 (stereo not given) | > 100 µM (inactive) | > 100 µM (inactive) | > 100 µM (inactive) | > 100 µM (inactive) | > 100 µM (inactive) | > 100 µM (inactive) | > 100 µM (inactive) | > 100 µM (inactive) | > 100 µM (inactive) | > 100 µM (inactive) | > 100 µM (inactive) | > 100 µM (inactive) | > 100 µM (inactive) | > 100 µM (inactive) | > 100 µM (inactive) | > 100 µM (inactive) | > 100 µM (inactive) | > 100 µM (inactive) | > 100 µM (inactive) | > 100 µM (inactive)
COc1ccc(C(c2ccc(OC)cc2)N2C(=O)CCC2C(=O)O)cc1 (stereo not given) | > 100 µM (inactive) | > 100 µM (inactive) | > 100 µM (inactive) | > 100 µM (inactive) | > 100 µM (inactive) | > 100 µM (inactive) | > 100 µM (inactive) | > 100 µM (inactive) | > 100 µM (inactive) | > 100 µM (inactive) | > 100 µM (inactive) | > 100 µM (inactive) | > 100 µM (inactive) | > 100 µM (inactive) | > 100 µM (inactive) | > 100 µM (inactive) | > 100 µM (inactive) | > 100 µM (inactive) | > 100 µM (inactive) | > 100 µM (inactive)
O=C(O)CCC(=O)c1ccc2sc3ccccc3c2c1 | > 100 µM (inactive) | > 100 µM (inactive) | > 100 µM (inactive) | > 100 µM (inactive) | > 100 µM (inactive) | > 100 µM (inactive) | > 100 µM (inactive) | > 100 µM (inactive) | > 100 µM (inactive) | > 100 µM (inactive) | > 100 µM (inactive) | > 100 µM (inactive) | > 100 µM (inactive) | > 100 µM (inactive) | > 100 µM (inactive) | > 100 µM (inactive) | > 100 µM (inactive) | > 100 µM (inactive) | > 100 µM (inactive) | > 100 µM (inactive)
CCOC(CN=C=S)OCC | > 10 µM (inactive) | > 10 µM (inactive) | 7.4 µM (inactive) | > 10 µM (inactive) | > 10 µM (inactive) | > 10 µM (inactive) | > 10 µM (inactive) | > 10 µM (inactive) | > 10 µM (inactive) | > 10 µM (inactive) | > 10 µM (inactive) | > 10 µM (inactive) | > 10 µM (inactive) | > 10 µM (inactive) | > 10 µM (inactive) | > 10 µM (inactive) | > 10 µM (inactive) | > 10 µM (inactive) | > 10 µM (inactive) | > 10 µM (inactive)
COc1cc2cc(C(=O)N3CC(CCl)c4c3cc(N)c3ccccc43)[nH]c2c(OC)c1OC (stereo not given) | < 0.01 µM (active) | < 0.01 µM (active) | < 0.01 µM (active) | < 0.01 µM (active) | < 0.01 µM (active) | < 0.01 µM (active) | < 0.01 µM (active) | < 0.01 µM (active) | < 0.01 µM (active) | < 0.01 µM (active) | < 0.01 µM (active) | < 0.01 µM (active) | < 0.01 µM (active) | < 0.01 µM (active) | < 0.01 µM (active) | < 0.01 µM (active) | < 0.01 µM (active) | < 0.01 µM (active) | < 0.01 µM (active) | < 0.01 µM (active)
COc1cc(S(=O)(=O)Nc2ccc(-c3csc(/N=C\c4ccccc4O)n3)cc2)ccc1Cl | > 100 µM (inactive) | > 100 µM (inactive) | 43.1 µM (inactive) | 65.3 µM (inactive) | > 100 µM (inactive) | 56 µM (inactive) | 35.5 µM (inactive) | 59 µM (inactive) | 36.1 µM (inactive) | 39.3 µM (inactive) | > 100 µM (inactive) | 52.7 µM (inactive) | 37.8 µM (inactive) | 44.9 µM (inactive) | 31.5 µM (inactive) | 65.2 µM (inactive) | 37.8 µM (inactive) | 16.9 µM (inactive) | 31.6 µM (inactive) | 31 µM (inactive)
O=C(C1OC1c1ccc(O)cc1)C12CC3CC(CC(C3)C1)C2 (stereo not given) | 31.6 µM (inactive) | 40.8 µM (inactive) | 41.5 µM (inactive) | > 100 µM (inactive) | > 100 µM (inactive) | > 86.1 µM (inactive) | > 40.2 µM (inactive) | > 64.3 µM (inactive) | > 40.7 µM (inactive) | 45.1 µM (inactive) | > 100 µM (inactive) | 97.9 µM (inactive) | 7.29 µM (inactive) | 51.3 µM (inactive) | > 88.9 µM (inactive) | 47.1 µM (inactive) | 27.7 µM (inactive) | 22.9 µM (inactive) | 40.1 µM (inactive) | 32.1 µM (inactive)
O=c1[nH]c(=O)n(C2CC(O)C(CS)O2)cc1F (stereo not given) | 21.7 µM (inactive) | > 81.7 µM (inactive) | 56.6 µM (inactive) | 37.2 µM (inactive) | > 100 µM (inactive) | > 100 µM (inactive) | 61.9 µM (inactive) | > 100 µM (inactive) | > 92.7 µM (inactive) | 64.7 µM (inactive) | > 100 µM (inactive) | > 94.4 µM (inactive) | > 87.1 µM (inactive) | > 92.7 µM (inactive) | 47 µM (inactive) | 80.5 µM (inactive) | > 86.1 µM (inactive) | > 76.2 µM (inactive) | 65.2 µM (inactive) | 60.4 µM (inactive)
COC(=O)C1=C(OC(=O)/C(=C/c2ccccc2)c2ccc([N+](=O)[O-])cc2)C(C(=O)OC)[C@@]2(O)[C@@H](C(=O)OC)[C@H](C)C[C@@H]1[C@@H]2C(=O)OC (stereo not given in full) | > 100 µM (inactive) | > 100 µM (inactive) | > 100 µM (inactive) | > 100 µM (inactive) | > 100 µM (inactive) | > 100 µM (inactive) | > 100 µM (inactive) | > 100 µM (inactive) | > 100 µM (inactive) | > 100 µM (inactive) | > 100 µM (inactive) | > 100 µM (inactive) | 77.3 µM (inactive) | > 100 µM (inactive) | > 100 µM (inactive) | > 100 µM (inactive) | > 100 µM (inactive) | > 100 µM (inactive) | > 100 µM (inactive) | > 100 µM (inactive)
CCCCn1cc(C(=O)O)c(=O)c2c3sccc3ccc21 | > 100 µM (inactive) | > 100 µM (inactive) | > 100 µM (inactive) | > 100 µM (inactive) | > 100 µM (inactive) | > 100 µM (inactive) | > 100 µM (inactive) | > 100 µM (inactive) | > 100 µM (inactive) | > 100 µM (inactive) | > 100 µM (inactive) | > 100 µM (inactive) | > 100 µM (inactive) | > 100 µM (inactive) | 74.8 µM (inactive) | > 100 µM (inactive) | > 100 µM (inactive) | > 100 µM (inactive) | > 100 µM (inactive) | 20 µM (inactive)
